Laboratory results as given in patent US20220287993A1, “PHARMACEUTICAL COMPOSITION COMPRISING HDAC INHIBITOR AND ANTI-PD1 ANTIBODY OR ANTI PD-L1 ANTIBODY” (CRYSTALGENOMICS, INC., priority 2019, published 2022).

Tested on: Hepal-6 hepatoma cells
Test: Tumor growth inhibition rate in mouse model (Hepal-6 hepatoma cells transplanted into C57BL/6 mice)
Assay type: in vivo, mice (C57BL/6)
Method: (E)-N1-(3-(dimethylamino)propyl)-N8-hydroxy-2-((naphthalen-1-yloxy)methyl)-2-octenediamide phosphate (CG-745, CAS No. 2173017-02-0) was used as the alkylcarbamoyl naphthalenyloxy octenoyl hydroxyamide compound, and BP0146 (BioXcell, West Lebanon, N.H., USA) was used as the anti-PD-1 antibody.
1×10^6 Hepal-6 hepatoma cells were injected into the left flank of 6-week-old C57BL6 mice. After 5 days, they were separated into 4 groups for administration of the vehicle, CG-745 alone, the anti-PD-1 antibody alone, or a combination of CG-745 and the anti-PD-1 antibody. The tumor volume was defined as (long axis)×(short axis)^2×0.5. […] Vehicle, CG-745, and the anti-PD-1 antibody were administered intraperitoneally (I.P). CG-745 was administered at a dose of 20 mg/kg for 5 consecutive days followed by 2 days of rest (1 treatment cycle) and the treatment cycle was repeated 3 times. The anti-PD-1 antibody was administered once at a dose of 5 mg/kg together with CG-745 on the fifth day of the first treatment cycle of CG-745.
The average inhibition rate of tumor growth for 9 mice is shown in FIG. 1, and the results for each of 9 mice are shown in FIG. 2.

CN(C)CCCNC(=O)/C(=C/CCCCC(=O)NO)COc1cccc2ccccc12.O=P(O)(O)O [Comparative Example 1, (E)-N1-(3-(dimethylamino)propyl)-N8-hydroxy-2-((naphthalen-1-yloxy)methyl)-2-octenediamide phosphate]
tumor growth inhibition rate (Day 32, average of 9 mice, CG-745 20 mg/kg I.P. 5 days on/2 days off x 3 cycles, anti-PD-1 antibody 5 mg/kg I.P. once): 73.8%
number of mice in which the tumor disappeared (of 9 mice per group, same dosing as the tumor growth inhibition rate): 4 mice
